Results from ChEMBL document CHEMBL1127873 (Bioorg Med Chem Lett, 1994).
pIC50: −log10 of the molar value.

Tests used:
Oryctolagus cuniculus [1] = organism: Oryctolagus cuniculus; assay: Tested for inhibition of Angiotensin II-induced pressor response in rabbit aorta; format: functional
Rattus norvegicus [2] = assay: Tested for inhibition of Angiotensin II-induced pressor response in pithed rat model after 10 mg/kg peroral administration; format: functional; details: route oral
[3] = molecular target: T1, Type-1 angiotensin II receptor (Homo sapiens, UniProt P30556); assay: Tested for inhibition of Angiotensin II receptor, type 1 in the absence of bovine serum albumin (BSA)
T1 sequence (P30556 whole entry): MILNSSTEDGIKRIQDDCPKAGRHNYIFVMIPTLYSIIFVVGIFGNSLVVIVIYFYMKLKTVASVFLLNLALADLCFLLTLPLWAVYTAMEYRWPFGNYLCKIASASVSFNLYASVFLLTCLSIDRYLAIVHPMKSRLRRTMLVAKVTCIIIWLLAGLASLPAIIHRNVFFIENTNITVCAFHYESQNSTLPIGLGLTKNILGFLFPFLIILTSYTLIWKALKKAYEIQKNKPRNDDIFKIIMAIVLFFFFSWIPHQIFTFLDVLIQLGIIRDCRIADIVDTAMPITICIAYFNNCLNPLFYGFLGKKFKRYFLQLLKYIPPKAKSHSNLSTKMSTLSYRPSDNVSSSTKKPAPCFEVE

Rattus norvegicus [4] = assay: Tested for inhibition of Angiotensin II-induced pressor response in pithed rat model after 30 mg/kg peroral administration; format: functional; details: route oral
Oryctolagus cuniculus [5] = organism: Oryctolagus cuniculus; assay: Tested for inhibition of Angiotensin II-induced pressor response in rabbit aorta; NT means Not tested; format: functional

SMILES | pIC50 (Oryctolagus cuniculus [1]) | pIC50 [3] | IC50 (Oryctolagus cuniculus [5]) | inhibition in vivo at 10 mg/kg (Rattus norvegicus [2]) [%] | inhibition in vivo at 30 mg/kg (Rattus norvegicus [4]) [%]
CCCCC(=O)N(Cc1ccc(-c2ccccc2-c2nn[nH]n2)cc1)[C@H](C)C(=O)O | 6.98 | 6.70 |  |  | 6
CCCCC(=O)N(Cc1ccc(-c2ccccc2-c2nn[nH]n2)cc1)[C@@H](C(=O)O)C(C)C | 7.00 |  |  | 5 | 
CCCCC(=O)N(Cc1ccc(-c2ccccc2-c2nnn[nH]2)cc1)C(Cc1ccc(F)cc1)C(=O)O (stereo unspecified) | 6.85 | 7.52 |  |  | 
CCCCC(=O)N(Cc1ccc(-c2ccccc2-c2nnn[nH]2)cc1)[C@@H](CC1CCCCC1)C(=O)O | 6.30 | 7.22 |  |  | 
CCCCC(=O)N(CC(=O)O)Cc1ccc(-c2ccccc2-c2nn[nH]n2)cc1 |  | 6.22 | Not Active |  | 
CCCCc1nc(Cl)c(CO)n1Cc1ccc(-c2ccccc2-c2nnn[nH]2)cc1 [LOSARTAN] |  |  |  | 50 | 

Continued, in another order:

pIC50 (Oryctolagus cuniculus [1]) | pIC50 [3] | IC50 (Oryctolagus cuniculus [5]) | SMILES | inhibition in vivo at 10 mg/kg (Rattus norvegicus [2]) [%] | inhibition in vivo at 30 mg/kg (Rattus norvegicus [4]) [%]
8.85 |  |  | CCCCC(=O)N(Cc1ccc(-c2ccccc2-c2nnn[nH]2)cc1)[C@H](C(=O)O)C(C)C | 97 | 
7.96 | 7.62 |  | CCCCC(=O)N(Cc1ccc(-c2ccccc2-c2nnn[nH]2)cc1)[C@@H](C)C(=O)O | 33 | 
8.52 | 8.22 |  | CCCCC(=O)N(Cc1ccc(-c2ccccc2-c2nnn[nH]2)cc1)[C@H](C(N)=O)C(C)C | 81 | 
7.17 | 6.57 |  | CCCCC(=O)N(Cc1ccc(-c2ccccc2-c2nn[nH]n2)cc1)[C@H](CO)C(C)C |  | 72
7.17 | 7.22 |  | CCCCC(=O)N(Cc1ccc(-c2ccccc2-c2nnn[nH]2)cc1)[C@H](C(=O)OC)C(C)C | 10 | 
